Assays:
[1] = biological target: purified recombinant LSD1 (Homo sapiens, UniProt O60341); assay: Fluorescence-based recombinant LSD1 inhibition assay; format: biochemical; conditions: residual activity at 10 μM; average of 3 determinations ± SEM; Table 2
[2] = system: MCF-10A human breast epithelial cell line; assay: Cytotoxicity in MCF-10A; format: cell-based
CA46 Burkitt's lymphoma = assay: Cytotoxicity in CA46; format: cell-based

| % LSD1 Activity (10μM) [1] [%] | SMILES | Cytotoxicity in MCF-10A [2] | Cytotoxicity in CA46 (CA46 Burkitt's lymphoma) |
| --- | --- | --- | --- |
| 33.9 ± 6.7 | N=C(NCCCNCCCCCCCNCCCNC(=N)NC(=N)NCCC(c1ccccc1)c1ccccc1)NC(=N)NCCC(c1ccccc1)c1ccccc1 [Compound 2, verlindamycin] | – | – |
| – | COc1ccccc1CNc1n[nH]c(NCc2ccccc2OC)n1 [Compound 7, N^3,N[5]-bis(2-methoxybenzyl)-1H-1,2,4-triazole-3,5-diamine] | no significant cytotoxicity | no significant cytotoxicity |
